For data set [1], the target named is T1, purified LasB (Pseudomonas aeruginosa, UniProt P14756).
T1 construct: The mature LasB protein is a 33 kDa metalloprotease, which is secreted from P. aeruginosa; host or cells: P. aeruginosa PAO1 (native secretion, culture supernatant)
Nature of the data set: LasB inhibition, fluorimetric Abz-AGLA-Nba hydrolysis assay with purified LasB. Type of data set: biochemical. An excerpt:
(§1) This was chosen as the starting point for a medicinal chemistry-driven lead optimization program aiming to improve potency and solubility whilst retaining selectivity against host metalloenzymes. All synthesized compounds were initially assessed in a fluorimetric assay measuring hydrolysis of a fluorogenic substrate Abz-Ala-Gly-Leu-Ala-4-nitrobenzylamide (Abz-AGLA-Nba) by purified LasB and IC50 values determined (Tables 1 and 2). Inhibition of elastin hydrolytic activity was confirmed using an orthogonal assay measuring hydrolysis of Elastin Congo Red (ECR) complex by LasB prepared directly from a P. aeruginosa culture supernatant (Tables 1 and 2). […] Aqueous solubility was determined for most compounds (Tables 1 and 2).
Native LasB protein was purified from culture supernatants of P. aeruginosa strain PAO1 (Charles River Laboratories, U.K.). Briefly, the sample was concentrated by ultrafiltration and the protein was purified by chromatography using an anion exchange (pH 8.5) step followed by gel filtration. This procedure yielded an enzyme preparation (0.8 mg/mL) of >98% purity. The enzyme was stored at −80 °C.
LasB inhibition assays were performed using purified LasB enzyme (1 ng/well) for compound screening or using culture supernatants (prepared as described in the ECR assay) for testing LasB variants. Hydrolysis of the fluorogenic peptide substrate 2-aminobenzoyl-Ala-Gly-Leu-Ala-4-nitrobenzylamide (Abz-AGLA-Nba; Peptide International) in 50 mM Tris-HCl (pH 7.4), supplemented with 2.5 mM CaCl2 was followed using an Envision microplate reader (PerkinElmer) at 315 nm excitation and 430 nm emission. For screening of lead compounds, assays were performed in the presence of 0.01% Triton X-100 with a range of inhibitor concentrations from 0.003 to 3.2 μM. IC50 values were determined from Hill plots using Dotmatics Studies ELN software. For the mechanism of inhibition studies, hydrolysis rates were measured in the presence of variable concentrations of substrate and inhibitor, and the inhibition constant (Ki) was determined using Dixon plot analysis.[31]

For data set [2], the target named is T2, LasB (P. aeruginosa PAO1 culture supernatant) (Pseudomonas aeruginosa, UniProt P14756).
T2 construct: The mature LasB protein is a 33 kDa metalloprotease, which is secreted from P. aeruginosa; endogenous in cells; host or cells: P. aeruginosa PAO1 culture supernatant, filtered and dialyzed
T2 sequence (P14756 198-498): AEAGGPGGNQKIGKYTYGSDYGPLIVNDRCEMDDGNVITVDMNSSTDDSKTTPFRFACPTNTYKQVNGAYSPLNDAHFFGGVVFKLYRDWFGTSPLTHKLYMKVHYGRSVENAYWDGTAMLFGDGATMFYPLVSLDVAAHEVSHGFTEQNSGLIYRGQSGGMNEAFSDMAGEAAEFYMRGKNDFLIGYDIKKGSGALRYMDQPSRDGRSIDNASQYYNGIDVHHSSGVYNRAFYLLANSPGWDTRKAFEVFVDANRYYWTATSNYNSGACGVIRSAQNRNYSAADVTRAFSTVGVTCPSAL
Nature of the data set: Elastin Congo Red (ECR) assay, elastin hydrolysis by dialyzed PAO1 culture supernatant. Type of data set: biochemical. The settings on record: 25 μM inhibitor.
Text: as §1
Inhibition of elastin hydrolysis by native LasB, secreted in P. aeruginosa culture supernatants, was measured using the Elastin Congo Red (ECR) assay. Culture supernatants from P. aeruginosa strain PAO1, grown in LB medium at 37 °C for 24 h, were filtered and dialyzed against 50 mM Tris-HCl pH 7.4, 2.5 mM CaCl2 solution at 4 °C and supplemented with 0.01%Triton X-100, 10 mg/mL ECR (Sigma) and 25 μM inhibitor compounds. The reaction mixture was incubated for 16 h at 37 °C with shaking before centrifugation and recovery of the supernatant and measurement of solubilized congo red by absorbance (OD495) using an EnSight multimode plate reader (PerkinElmer).

Data set [3] in a line: Thermodynamic solubility in PBS (pH 7.4). Type of data set: physicochemical. The settings on record: aqueous buffer, thermodynamic from solid.
Data set [4] concerns the target T3, secreted LasB in P. aeruginosa PAO1-infected THP-1 macrophages (Pseudomonas aeruginosa, UniProt P14756).
T3 construct: The mature LasB protein is a 33 kDa metalloprotease, which is secreted from P. aeruginosa; endogenous in cells; host or cells: P. aeruginosa PAO1 infecting human THP-1 macrophages (MOI 10:1); supernatant after 2 h
Nature of the data set: LasB activity (Sub115 hydrolysis) in supernatants of P. aeruginosa-infected THP-1 macrophages. Type of data set: cell-based. The conditions noted are these: infected THP-1 cells, 5 μM. Here is the method:
(§2) Further to showing in vitro inhibition of LasB-mediated pro-IL-1β proteolysis, experiments were performed to determine the effect of compounds 12 and 16 on IL-1β activation and functionality in human macrophage cell cultures infected with P. aeruginosa PAO1, or an isogenic lasB deletion mutant thereof (ΔlasB). In these experiments, the levels of LasB activity in culture supernatants were measured via hydrolysis of the Sub115 fluorescent peptide, while the effect of LasB activity on IL-1β activation (functionality) was measured using a luciferase reporter cell line sensitive to IL-1β induction (Figure 3).
Human THP-1 macrophages were cultured by conventional methods then, pre-infection, culture media were replaced by RPMI lacking phenol red and antibiotics. Compounds VX-765 (caspase-1 inhibitor, developed by Vertex) and/or LasB inhibitors were added, immediately followed by inoculation with P. aeruginosa PAO1 or an isogenic lasB deletion mutant (ΔlasB), previously grown in Luria broth to late exponential phase (OD600 = 1.2) then washed and diluted in PBS, at a multiplicity of infection (MOI) of 10 to 1. After 2 h post-infection, 50 μL aliquots of supernatant were removed and used to quantitate both LasB activity and IL-1β functionality. To determine LasB activity, 50 μL of supernatant was added to Sub115 IL-1β peptide and hydrolysis of Sub115 was monitored spectrophotometrically with excitation at 355 nm and emission at 450 nm, as described above. Results were expressed as relative fluorescence units (RFU).
In the first variation, experimental infections were performed with P. aeruginosa PAO1 and ΔlasB bacteria incubated with varying quantities of inhibitor at final concentrations ranging from 0.5 to 8 μM. In the second, cells were treated and infected in the same manner and also treated with 5 μM VX-765 to provide a control for IL-1β activation by the inflammasome pathway.

Data set [5] deals with IL-1β activation. Nature of the data set: IL-1β activation in P. aeruginosa-infected THP-1 macrophages (HEK IL-1R-lux reporter assay). Type of data set: cell-based, human. The conditions noted are these: infected THP-1 cells, 5 μM. Here is the method: as §2
Human THP-1 macrophages were cultured by conventional methods then, pre-infection, culture media were replaced by RPMI lacking phenol red and antibiotics. […] After 2 h post-infection, 50 μL aliquots of supernatant were removed and used to quantitate both LasB activity and IL-1β functionality. To determine LasB activity, 50 μL of supernatant was added to Sub115 IL-1β peptide and hydrolysis of Sub115 was monitored spectrophotometrically with excitation at 355 nm and emission at 450 nm, as described above. Results were expressed as relative fluorescence units (RFU).
To determine IL-1β functionality, generation of an IL-1 signal was quantified by adding 50 μL of supernatant to HEK IL-1R-lux reporter cells cultured in RPMI supplemented with 5% heat-inactivated FBS, 200 μg/mL penicillin/streptomycin, 200 μg/mL hygromycin, 100 μg/mL zeomycin, and 0.5 μg/mL puromycin. No bacteria survived in this antibiotic condition; 18 h post-treatment, IL-1β-dependent luciferase induction was assayed by luminescence measured with D-luciferin substrate (Steady-Luc, Biotium) on a multimode reader (PerkinElmer) and expressed as relative luminescence units (RU), as previously described.[16]
In the first variation, experimental infections were performed with P. aeruginosa PAO1 and ΔlasB bacteria incubated with varying quantities of inhibitor at final concentrations ranging from 0.5 to 8 μM. […]

pIC50: −log10 of the molar value. Values after ≈ are worked out from the molar mass of the structure shown.

T1 sequence (P14756 198-498): as above
T3 sequence (P14756 198-498): as above

Regarding `O=C(O)CC1(C(=O)NCc2nc3ccccc3s2)Cc2ccccc2C1` [Compound 1], the pIC50 in data set [1] is 6.39. Further, the “Elastin hydrolysis @ 25 μM (% inh)” value in data set [2] was 69 % inh. This compound showed a solubility in data set [3] of 580 µg/mL (≈ 1.58 mM).

In data set [1], `O=C(O)CC1(C(=O)NCc2nc3cc(Cl)ccc3s2)Cc2ccccc2C1` [Compound 2] gave a pIC50 of 6.46. Also, the “Elastin hydrolysis @ 25 μM (% inh)” value in data set [2] stood at 58 % inh.

In data set [1], `COc1ccc2sc(CNC(=O)C3(CC(=O)O)Cc4ccccc4C3)nc2c1` [Compound 3] showed a negative logarithm of the IC50 (pIC50) of 6.82. For the same compound, the “Elastin hydrolysis @ 25 μM (% inh)” value in data set [2] is reported as 64 % inh.

As to `COc1cc2nc(CNC(=O)C3(CC(=O)O)Cc4ccccc4C3)sc2cc1OC` [Compound 4], the pIC50 in data set [1] was 7.70. Also, the “Elastin hydrolysis @ 25 μM (% inh)” value in data set [2] was determined as 82 % inh. Further, in data set [3], the solubility was 2000 µg/mL (≈ 4.69 mM).

Compound `O=C(O)CC1(C(=O)NCc2nc3cc4c(cc3s2)OCO4)Cc2ccccc2C1` [Compound 5] showed a pIC50 in data set [1] of 6.92. Also, in data set [2], the “Elastin hydrolysis @ 25 μM (% inh)” value is 75 % inh. In data set [3], the concentration in solution (solubility) came to 2000 µg/mL (≈ 4.87 mM).

`CN1CCN(c2ccc3nc(CNC(=O)C4(CC(=O)O)Cc5ccccc5C4)sc3c2)CC1` [Compound 6] gave a pIC50 in data set [1] of 5.80. For the same compound, in data set [2], the “Elastin hydrolysis @ 25 μM (% inh)” value worked out at 39 % inh. The solubility in data set [3] turned out to be 3400 µg/mL (≈ 7.32 mM).

Compound `CN(C)CCOc1ccc2sc(CNC(=O)C3(CC(=O)O)Cc4ccccc4C3)nc2c1` [Compound 7] gave a pIC50 in data set [1] of 6.17. For the same compound, in data set [2], the “Elastin hydrolysis @ 25 μM (% inh)” value is 42 % inh. The compound further gave a solubility in data set [3] of 4200 µg/mL (≈ 9.26 mM).

Take `C[N+]1(C)CCN(c2ccc3nc(CNC(=O)C4(CC(=O)O)Cc5ccccc5C4)sc3c2)CC1` [Compound 8]: the pIC50 in data set [1] is 5.87. In data set [2], the “Elastin hydrolysis @ 25 μM (% inh)” value came to 33 % inh. Also, the concentration in solution in data set [3] (solubility) was 18700 µg/mL.

In data set [1], `C[N+](C)(C)CCOc1ccc2sc(CNC(=O)C3(CC(=O)O)Cc4ccccc4C3)nc2c1` [Compound 9] gave a negative-log IC50 (pIC50) of 6.09. For the same compound, the “Elastin hydrolysis @ 25 μM (% inh)” value in data set [2] is given as 40 % inh. This compound also returned a solubility in data set [3] of 18100 µg/mL.

Take `O=C(O)CC1(C(=O)NCc2nc3ccccc3s2)Cc2cc(F)c(F)cc2C1` [Compound 10]: the pIC50 in data set [1] was 6.85. Moreover, the “Elastin hydrolysis @ 25 μM (% inh)” value in data set [2] is listed as 66 % inh. Also, the concentration in solution in data set [3] (solubility) came to 600 µg/mL (≈ 1.49 mM).

Compound `COc1cc2sc(CNC(=O)C3(CC(=O)O)Cc4ccccc4C3)nc2cc1OCCCN(C)C` [Compound 11] had a pIC50 in data set [1] of 7.10. For the same compound, the “Elastin hydrolysis @ 25 μM (% inh)” value in data set [2] turned out to be 69 % inh.

`COc1cc2sc(CNC(=O)C3(CC(=O)O)Cc4ccccc4C3)nc2cc1OCC1CC[N+](C)(C)CC1` [Compound 13] had a pIC50 in data set [1] of 6.89. In addition, the “Elastin hydrolysis @ 25 μM (% inh)” value in data set [2] is listed as 66 % inh. The compound also returned a solubility in data set [3] of 15800 µg/mL.

The compound `COc1cc2sc(CNC(=O)C3(CC(=O)O)Cc4cc(F)c(F)cc4C3)nc2cc1OCC1CC[N+](C)(C)CC1` [Compound 14] gave a pIC50 in data set [1] of 7.05. Moreover, the “Elastin hydrolysis @ 25 μM (% inh)” value in data set [2] stood at 72 % inh. In data set [3], the solubility was found to be 17800 µg/mL.

The compound `COc1cc2sc(CNC(=O)C3(CC(=O)O)Cc4ccccc4C3)nc2cc1OCCC[N+](C)(CCO)CCO` [Compound 15] had a pIC50 in data set [1] of 6.72. Further, the “Elastin hydrolysis @ 25 μM (% inh)” value in data set [2] is given as 69 % inh. This compound also had a solubility in data set [3] of 17600 µg/mL.

Turning to `CCO[C@@H]1OC(=O)C[C@@H]1NC(=O)[C@@H]1CCCN1C(=O)[C@@H](NC(=O)c1ccc(N)c(Cl)c1)C(C)(C)C` [VX-765, reference compound], the “effect on LasB activity” value in data set [4] was “no effect”. Besides, the “effect on IL-1β activation” value in data set [5] is “reduced IL-1β activation”.

Source of the values: paper PMC9926489, “Chemical Optimization of Selective Pseudomonas aeruginosa LasB Elastase Inhibitors and Their Impact on LasB-Mediated Activation of IL-1β in Cellular and Animal Infection Models” (ACS Infectious Diseases, 2023).
